Reference: patent publication US20060241108A1, “Substituted phenoxazines and acridones as inhibitors of AKT” (St. Jude Children's Research Hospital, priority 2005, published 2006)

What was measured:
[1] = system: AKT; assay: Inhibition of IGF-I stimulated AKT phosphorylation (Ser473) in Rh1 cells, Western blot; type: cell-based, human; conditions: for inhibition of AKT phosphorylation: 2.5 μM, Rh1 cells serum free, IGF-I; for Inhibition (phosphorylation of AKT at Ser 473): 5 μM, 1 hour, serum starved Rh1 cells, IGF-I 10 ng/ml 10 minutes, average of two experiments
Protocol: (§1) Cell lines and growth conditions. The human cell lines Rh1, Rh18, and Rh30 (ATCC Deposit # CRL 2061) have been described, e.g., by Hazelton et al. Cancer Res 1987;47:4501-4507 and Hosoi et al. Cancer Res. 1999;59:886-894. Rh1, Rh18 and Rh30 cells can each be grown in antibiotic free RPMI-1640 medium (available from BioWhittaker, Walkersville, Md.), supplemented with 10% fetal bovine serum (available from HyClone Laboratories, Logan, Utah) and 2 mM L-glutamine (available from BioWhittaker, Walkersville, Md.) at 37° C. in an atmosphere of 5% CO2. For serum free experiments, cells can be cultured in modified N2E (MN2E) medium (DMEM/F-12, 1:1 mixture) (Sigma, St. Louis, Mo.) supplemented with 1 μg/ml human holo transferrin, 30 nM sodium selenite, 20 nM progesterone, 100 μM putrescine, 30 nM vitamin E phosphate, and 50 μM ethanolamine. Cells in MN2E medium containing 5 μg/ml bovine fibronectin (available from Sigma, St. Louis, Mo.) are preferably plated, and allowed to attach overnight at 37° C. in a humidified, 5% CO2 atmosphere.
Cellular screening for inhibitors. Rh1, Rh18 and Rh30 cells can each be seeded at a density of 4×10^6/10-cm plate in serum-free medium for overnight attachment. The cells can then be exposed to 0.1% DMSO or to a test compound (for example, a phenoxazine or acridone compound) for one hour, then stimulated with Insulin-like growth factor-I (IGF-I) (10 ng/ml) for 10 minutes.
Western blot analysis. Cells are rapidly washed with ice-cold phosphate-buffered saline (PBS), placed on ice, and lysed in mammalian protein extraction reagent (M-PER; available from Pierce, Rockford, Ill.) containing one Complete™ mini protease inhibitor tablet (available from Boehringer Mannheim, Mannheim, Germany), 1 mM phenylmethylsulfonyl fluoride, 1 mM Na3VO4 and 1 mM NaF. Cellular debris is pelleted by centrifugation at 17,500×g for 10 minutes at 4° C. The protein concentration of the supernatants is measured by the bicinchoninic acid assay (e.g., using the BCA™ Protein Assay Kit, Pierce, Rockford, Ill., catalog number 23225 or 23227) using bovine serum albumin as the standard.
For the analysis of AKT, ERK-1/2, mTOR, p70S6 kinase, ribosomal protein S6 (rpS6 or S6), and glycogen synthase kinase 3 (GSK-3), equivalent amounts of protein can be separated on a 12% SDS-polyacrylamide gel (available from BioRad, Hercules, Calif.) by electrophoresis and subsequently transferred to a nitrocellulose membrane (also available from BioRad). After a 1 hour incubation in 1×TBS containing 0.05% Tween 20 and 5% blocking reagent (skim milk) (available from Upstate Biotechnology, Lake Placid, N.Y.) at room temperature, the wet nitrocellulose membranes are incubated with appropriate antibodies (available from Cell Signaling Technology, Beverly, Mass.): rabbit polyclonal antiserum specific for the phosphorylated Ser473 or Thr308 of AKT (dilution 1:1000); rabbit polyclonal antiserum specific for phosphorylated Thr202/Tyr204 of ERK-1/2 (dilution 1:1000); rabbit polyclonal antiserum specific for phosphorylated Ser2448 or Ser2481 of mTOR (dilution 1:1000); rabbit polyclonal antiserum specific for phosphorylated Thr389 of p70S6 kinase (dilution 1:4000); rabbit polyclonal antiserum specific for phosphorylated Ser235/236 of rpS6 (dilution 1:1000); or rabbit polyclonal antiserum specific for phosphorylated Ser21/9 of GSK-3α/β (dilution 1:1000). Horseradish peroxidase-conjugated goat anti-rabbit IgG antibody (dilution 1:10,000) can be used as the secondary antibody. Immunoreactive protein can be visualized using Renaissance chemiluminescence reagent (available from Life Science Products Inc., Boston, Mass.).
For these assays, Rh1 cells are seeded in serum-free medium for overnight attachment. The serum starved Rh1 cells are then exposed to 1-5 μM of a compound in Table I for 1 hour before stimulating with IGF-I (10 ng/ml) for 10 minutes. […]

[2] = system: Rh30 cells; assay: Cell growth inhibition, Rh30 cells; type: cell-based, human; conditions: complete medium, six days, nuclei counted
Protocol: as §1, with “Cells in MN2E medium containing 5 μg/ml bovine fibronectin (available from Sigma, St. Louis, Mo.) are preferably plated, and allowed to attach overnight at 37° C. in a humidified, 5% CO2 atmosphere.” left out
Cell growth inhibition. […] Growth can be assessed after lysing cells, and counting nuclei. […]
The effect(s) of compounds, including phenoxazine compounds such as those listed in Table I, above, on cell growth can be evaluated in cell-based assays such as the exemplary assays described here. Rh1, Rh18 and/or Rh30 cells grown in complete medium can be exposed to graded concentrations of test compound (e.g., from 0.1 to 25 μM) for six days, at which time the cells can be lysed and their growth assessed by counting nuclei. […]

Compound | inhibition of AKT phosphorylation [1] | Inhibition (phosphorylation of AKT at Ser 473) [1] | IC50 [2] [µM]
10-[4′-[(β-hydroxyethyl)piperazino]butyl]-2-chlorophenoxazine [Compound 15B] | complete inhibition | ++++ (++++ ≈ 100% inhibition) | 6
CCN(CC)CCCCN1c2ccccc2Oc2ccc(Cl)cc21 [Compound 10B, 10-[4′-(N-diethylamino)butyl]-2-chlorophenoxazine] | complete inhibition | ++++ (++++ ≈ 100% inhibition) | 6
